Data on 21 compounds can be found in ChEMBL document CHEMBL2202975, “Inhibition of monoamine oxidase by 8-[(phenylethyl)sulfanyl]caffeine analogues” (Bioorg Med Chem, 2012).

For one series, the species on record is Homo sapiens. The series is described as follows: Selectivity index, ratio of IC50 for human recombinant MAO-A to IC50 for human recombinant MAO-B.
Series [1] deals with T1, Amine oxidase [flavin-containing] B (Homo sapiens, UniProt P27338).
T1 sequence (P27338 whole entry): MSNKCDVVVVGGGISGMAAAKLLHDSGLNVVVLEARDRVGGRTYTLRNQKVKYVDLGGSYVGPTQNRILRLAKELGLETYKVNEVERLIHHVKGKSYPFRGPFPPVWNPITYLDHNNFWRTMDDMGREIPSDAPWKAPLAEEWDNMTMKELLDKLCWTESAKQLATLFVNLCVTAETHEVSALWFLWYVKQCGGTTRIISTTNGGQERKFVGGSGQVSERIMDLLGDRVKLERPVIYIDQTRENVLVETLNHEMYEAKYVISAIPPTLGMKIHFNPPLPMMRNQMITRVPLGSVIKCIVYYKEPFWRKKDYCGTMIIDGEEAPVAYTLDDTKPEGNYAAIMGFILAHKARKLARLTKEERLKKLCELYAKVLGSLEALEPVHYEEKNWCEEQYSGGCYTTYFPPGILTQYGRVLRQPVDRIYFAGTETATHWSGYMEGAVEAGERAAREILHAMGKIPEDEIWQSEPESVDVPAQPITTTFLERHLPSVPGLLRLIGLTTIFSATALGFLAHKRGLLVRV
Description: Inhibition of human recombinant MAO-B expressed in insect cell microsome assessed as 4-hydroxyquinoline formation using kynuramine as substrate after 20 mins by fluorescence spectrophotometry

Series [2] addresses T2, Amine oxidase [flavin-containing] A (Homo sapiens, UniProt P21397).
T2 sequence (P21397 whole entry): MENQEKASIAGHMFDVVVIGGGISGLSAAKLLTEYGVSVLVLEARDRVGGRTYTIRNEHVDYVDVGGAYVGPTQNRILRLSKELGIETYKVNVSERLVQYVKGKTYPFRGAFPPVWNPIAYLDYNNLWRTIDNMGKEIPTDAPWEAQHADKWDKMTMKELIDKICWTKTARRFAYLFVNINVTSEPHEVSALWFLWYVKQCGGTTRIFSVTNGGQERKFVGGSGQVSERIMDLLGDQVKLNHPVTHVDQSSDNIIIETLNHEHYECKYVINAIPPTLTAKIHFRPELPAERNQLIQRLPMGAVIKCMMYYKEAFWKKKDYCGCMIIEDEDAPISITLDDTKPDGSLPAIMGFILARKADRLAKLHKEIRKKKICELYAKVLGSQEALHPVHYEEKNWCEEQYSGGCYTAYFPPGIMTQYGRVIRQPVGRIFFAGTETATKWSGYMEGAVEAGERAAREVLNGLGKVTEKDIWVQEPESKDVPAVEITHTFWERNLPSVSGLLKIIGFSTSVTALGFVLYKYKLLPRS
In words: Inhibition of human recombinant MAO-A expressed in insect cell microsome assessed as 4-hydroxyquinoline formation using kynuramine as substrate after 20 mins by fluorescence spectrophotometry. The class given is microsomes.

The nature of series [3]: Octanol-water partition coefficient, log P of the compound by shake flask method. The format is physicochemical.
In series [4] the target is T2, Amine oxidase [flavin-containing] A. The series is described as follows: Inhibition of human recombinant MAO-A expressed in insect cell microsome assessed as 4-hydroxyquinoline formation using kynuramine as substrate at 100 uM after 20 mins by fluorescence spectrophotometry. The format is microsomes.
Series [5] concerns the target T1, Amine oxidase [flavin-containing] B. The series is described as follows: Reversible inhibition of human recombinant MAO-B expressed in insect cell microsome assessed as enzyme activity recovery using kynuramine as substrate preincubated for 30 mins at 100xIC50 measured after 20 mins following 100-fold compound dilution with addition of substrate by fluorescence spectrophotometry. The class given is microsomes. Also on record: scale not given: the % may be the effect or the level left.

For series [6] the target is unchanged. In words: Time dependent inhibition of human recombinant MAO-B expressed in insect cell microsome assessed as 4-hydroxyquinoline formation using kynuramine as substrate preincubated for 15 to 60 mins at 2 times IC50 measured after 15 mins following twofold compound dilution with addition of substrate by fluorescence spectrophotometry. The class given is microsomes. Conditions: 0.25 h; call rule not given here.

Series [7] has as its target T2, Amine oxidase [flavin-containing] A. The series is described as follows: Reversible inhibition of human recombinant MAO-A expressed in insect cell microsome assessed as 4-hydroxyquinoline formation using kynuramine as substrate preincubated for 15 to 60 mins at 2 times IC50 measured after 15 mins following twofold compound dilution with addition of substrate by fluorescence spectrophotometry. Conditions: 0.25 h. The format is microsomes.

Series [8] has as its target T1, Amine oxidase [flavin-containing] B. The series is described as follows: Reversible inhibition of human recombinant MAO-B expressed in insect cell microsome assessed as 4-hydroxyquinoline formation using kynuramine as substrate preincubated for 15 to 60 mins at 2 times IC50 measured after 15 mins following twofold compound dilution with addition of substrate by fluorescence spectrophotometry. The class given is microsomes. Particulars: 0.25 h.

Series [9] has the same target. The series is described as follows: Competitive inhibition of human recombinant MAO-B expressed in insect cell microsome using kynuramine as substrate by Morrison equation analysis. The class given is microsomes.
Series [10] has the same target. The series is described as follows: Competitive inhibition of human recombinant MAO-B expressed in insect cell microsome using kynuramine as substrate by Lineweaver-Burk plot analysis. The format is microsomes.

Regarding `Cn1c(=O)c2c(nc([S+]([O-])Cc3ccccc3)n2C)n(C)c1=O` (stereo unspecified), the Ratio IC50 in the series listed under Homo sapiens came out at 2. Further, the figures for the IC50 in series [1] and in series [2] were 131000 nM and 250000 nM, respectively.
With `Cn1c(=O)c2c(nc(SCCc3ccc(C(F)(F)F)cc3)n2C)n(C)c1=O`, the IC50 in series [1] was 19 nM. The logP in [3] came to 3.21. Moreover, in series [4], the “inhibition (INH)” value is “Not Active”.
As for `Cc1ccc(CCSc2nc3c(c(=O)n(C)c(=O)n3C)n2C)cc1`, the Ratio IC50 in the series listed under Homo sapiens worked out at 1740. Further, the concentration for half-maximal inhibition (IC50) in [1] worked out at 72 nM; in series [2], 125000 nM. In series [3], this compound showed a logP of 3.15.
As to `Cn1c(=O)c2c(nc(SCCc3ccc(F)cc3)n2C)n(C)c1=O`, the Ratio IC50 in the series filed under Homo sapiens is 207. The 50% inhibitory concentration (IC50) in [1] was 71 nM; in [2], 14700 nM.
Regarding `COc1cccc(CCSc2nc3c(c(=O)n(C)c(=O)n3C)n2C)c1`, the Ratio IC50 in the series filed under Homo sapiens was 385. Further, the results for the IC50 in series [1] and in series [2] were 125 nM and 48100 nM, respectively.
For `COc1ccc(CCSc2nc3c(c(=O)n(C)c(=O)n3C)n2C)cc1`, the Ratio IC50 in the series filed under Homo sapiens is 7300. Besides, the 50% inhibitory concentration (IC50) in series [1] was determined as 23 nM; in series [2] it was 168000 nM. The log partition coefficient (logP) in series [3] was determined as 2.55.
Consider `Cn1c(=O)c2c(nc(SCc3cccc(Cl)c3)n2C)n(C)c1=O`, for which the Ratio IC50 in the series listed under Homo sapiens came out at 28. The half-inhibitory concentration (IC50) in series [1] is 227 nM; in series [2], 6430 nM.
The matching figures for `Cn1c(=O)c2c(nc(SCc3cccc(Br)c3)n2C)n(C)c1=O`: 190, 199 nM and 37900 nM.
With `Cn1c(=O)c2c(nc(SCCCc3ccccc3)n2C)n(C)c1=O`, the lipophilicity (logP) in series [3] amounted to 3.3. The IC50 in [2] worked out at 6480 nM.
Regarding `Cn1c(=O)c2c(nc(SCCc3ccccc3)n2C)n(C)c1=O`, in the series filed under Homo sapiens, the Ratio IC50 was 69. The IC50 in [1] was 271 nM; in series [2], 18700 nM. The logP in [3] was 3.22.
On to `Cn1c(=O)c2c(nc(SCCc3cccc(C(F)(F)F)c3)n2C)n(C)c1=O`, for which, in the series listed under Homo sapiens, the Ratio IC50 was 8290. Also, the Activity in series [5] amounted to 22%. The IC50 was 17 nM in [1] and 141000 nM in series [2]. For the same compound, the lipophilicity (logP) in series [3] was 3.14.
As to `Cn1c(=O)c2c(nc([S+]([O-])CCc3ccc(Br)cc3)n2C)n(C)c1=O` (stereo unspecified), the Ratio IC50 in the series filed under Homo sapiens turned out to be 122. Further, the IC50 in series [1] came to 471 nM; in [2], 57300 nM.
As to `Cn1c(=O)c2c(nc(SCCc3cccc(Cl)c3)n2C)n(C)c1=O`, the Ratio IC50 in the series listed under Homo sapiens worked out at 132. The IC50 in series [1] stood at 43 nM; in [2] it was 5660 nM.
On the same counts, the results for `Cn1c(=O)c2c(nc(SCCc3cccc(Br)c3)n2C)n(C)c1=O` are 143, 40 nM and 5700 nM.
Take `Cc1cccc(CCSc2nc3c(c(=O)n(C)c(=O)n3C)n2C)c1`: the Ratio IC50 in the series listed under Homo sapiens worked out at 235. For the same compound, the concentration for half-maximal inhibition (IC50) worked out at 51 nM in series [1] and 12000 nM in series [2].
In the case of `Cn1c(=O)c2c(nc(SCCc3ccc(Br)cc3)n2C)n(C)c1=O`, the Ratio IC50 in the series filed under Homo sapiens turned out to be 5680. In addition, the values for the IC50 in series [1] and in [2] were 19 nM and 108000 nM, respectively. The lipophilicity (logP) in series [3] is 2.98.
For `Cn1c(=O)c2c(nc(SCCc3ccc(Cl)cc3)n2C)n(C)c1=O`, the “inhibition (INH)” value in [6], in series [7] and in [8] was “Active” in each case. In the series filed under Homo sapiens, the Ratio IC50 was 423. Moreover, the Activity in series [5] was determined as 26%. Besides, the results for the IC50 in series [1] and in series [2] were 20 nM and 8460 nM, respectively. Moreover, the Ki came to 9.8 nM in series [9] and 13 nM in series [10].
With `Cn1c(=O)c2c(nc([S+]([O-])CCc3ccc(F)cc3)n2C)n(C)c1=O` (stereo unspecified), the Ratio IC50 in the series listed under Homo sapiens is 68. Besides, the half-maximal inhibitory concentration (IC50) in series [1] was determined as 3500 nM; in series [2] it was 239000 nM.
Consider `Cn1c(=O)c2c(nc([S+]([O-])CCc3ccc(Cl)cc3)n2C)n(C)c1=O` (stereo unspecified), for which the Ratio IC50 in the series listed under Homo sapiens is 260. In addition, the values for the IC50 in series [1] and in series [2] were 781 nM and 203000 nM, respectively.
For the compound `Cn1c(=O)c2c(nc(SCCCc3ccc(Cl)cc3)n2C)n(C)c1=O`, the Ratio IC50 in the series filed under Homo sapiens was 12. Moreover, the IC50 in series [1] worked out at 61 nM; in series [2], 708 nM. This compound gave a logP in series [3] of 3.59.
On the same counts, the results for `Cn1c(=O)c2c(nc(SCCCc3cccc(Cl)c3)n2C)n(C)c1=O` are 57, 62 nM, 3530 nM and 3.76.

As a reminder, the IC50 is the concentration needed to halve the response being measured. The logP is the decadic logarithm of the partition coefficient of the neutral form, usually between octanol and water. The Ki is a measure of affinity in units of concentration, obtained from inhibition or displacement.
